Source: US4056674A, “Derivatives of 3-deazaguanine” (priority 1975, dated 1977)
≈ marks a conversion by molar mass, not a printed value. Read-outs that look alike come from different tables or passages of the source.

Experiments:
[1] = test system: virus; conditions: background statement; cited from earlier work
[2] = test system: viruses causing respiratory diseases such as influenza in man; conditions: background statement; cited from earlier work
[3] = test system: leukemia L1210; assay: Activity against leukemia L1210 in BDF1 female mice; format: in vivo; conditions: 40 mg/kg i.p., qd [1-9]
Method: In this example compound 30 was tested for antitumor activity in mice. […] A 10^-5 M concentration of compound 30 caused 50% inhibition of the incorporation of ^3 H-thymidine and ^3 H-uridine into the acidinsoluble fraction of L1210 cells in tissue culture. […] Ara C (cytosine arabinoside) was included as a standard.
All animals were inoculated (i.p) with 10^5 leukemic cells. Treatment
was started 24 hours after transplant. Figures in parenthesis denote 21

[4] = test system: herpes simplex virus, type 1; assay: In vitro antiviral, inhibition of virus-induced CPE, HSV/1; format: cell-based; conditions: KB or RK-13 cells, VR >0.5 significant, <0.5 slight antiviral activity
[5] = test system: herpes simplex virus, type 2; assay: In vitro antiviral, inhibition of virus-induced CPE, HSV/2; format: cell-based; conditions: KB or RK-13 cells, VR >0.5 significant, <0.5 slight antiviral activity
[6] = test system: adenovirus, type 3; assay: In vitro antiviral, inhibition of virus-induced cytopathogenic effect (CPE), AV/3; format: cell-based; conditions: KB or RK-13 cells, VR >0.5 significant, <0.5 slight antiviral activity
[7] = test system: vaccinia virus; format: cell-based; conditions: VV; KB or RK-13 cells; VR >0.5 significant, <0.5 slight antiviral activity
[8] = test system: human cytomegalovirus; assay: In vitro antiviral, inhibition of virus-induced CPE, HCMV; format: cell-based; conditions: KB or RK-13 cells, VR >0.5 significant, <0.5 slight antiviral activity
[9] = test system: pseudorabies virus; format: cell-based; conditions: PRV; KB or RK-13 cells; VR >0.5 significant, <0.5 slight antiviral activity
[10] = test system: myxoma virus; assay: In vitro antiviral, inhibition of virus-induced CPE, MV; format: cell-based; conditions: KB or RK-13 cells, VR >0.5 significant, <0.5 slight antiviral activity
Method: In this example, compounds 3, 4, 13, 16, 20, 22, 29 and 30 were tested to determine their in vitro antiviral efficacy, using the inhibition virus-induced cytopathogenic effect (CPE) method of Sidwell, et al. (Applied Microbiology 22:797-801, 1971). Briefly, the CPE procedure includes the suspension of the antiviral agent in a cell culture medium consisting of vitamins, amino acids, serum, buffer, penicillin, streptomycin and indicator dye in water. The virus suspended in the cell culture medium was added to an established monolayer of KB cells or RK-13 cells, and an equal volume of the antiviral agent was then added within 15 minutes. The infected treated cells were graded following microscopic examination. Controls for each experiment include cell controls cells and cell culture medium only), virus controls (cell and virus cell culture medium) and toxicity controls (cells and chemical and cell culture medium).
The virus rating (VR) system of Sidwell et al., described in Applied Microbiology, supra, was used to evaluate the degree of significance of CPE inhibition.

[11] = test system: Parainfluenza virus, type 3; assay: In vitro antiviral, inhibition of virus-induced CPE, PIV/3; format: cell-based
[12] = test system: parainfluenza virus, type 1; assay: In vitro antiviral, inhibition of virus-induced CPE, PIV/1; format: cell-based
[13] = test system: rhinovirus, type 1A; assay: In vitro antiviral, inhibition of virus-induced CPE, RV/1A; format: cell-based; conditions: KB or RK-13 cells, VR >0.5 significant, <0.5 slight antiviral activity
[14] = test system: RV/2: rhinovirus, type 1; assay: In vitro antiviral, inhibition of virus-induced CPE, RV/2; format: cell-based; conditions: KB or RK-13 cells, VR >0.5 significant, <0.5 slight antiviral activity
[15] = test system: rhinovirus, type 8; assay: In vitro antiviral, inhibition of virus-induced CPE, RV/8; format: cell-based; conditions: KB or RK-13 cells, VR >0.5 significant, <0.5 slight antiviral activity
[16] = test system: rhinovirus, type 13; assay: In vitro antiviral, inhibition of virus-induced CPE, RV/13; format: cell-based; conditions: KB or RK-13 cells, VR >0.5 significant, <0.5 slight antiviral activity
[17] = test system: rhinovirus, type 56; assay: In vitro antiviral, inhibition of virus-induced CPE, RV/56; format: cell-based; conditions: KB or RK-13 cells, VR >0.5 significant, <0.5 slight antiviral activity
[18] = test system: influenza virus, type Ao; assay: In vitro antiviral, inhibition of virus-induced CPE, IV/Ao; format: cell-based; conditions: KB or RK-13 cells, VR >0.5 significant, <0.5 slight antiviral activity
[19] = test system: vesicular stomatitis virus; format: cell-based; conditions: VSV; KB or RK-13 cells; VR >0.5 significant, <0.5 slight antiviral activity
[20] = test system: Escherichis; assay: In vitro antibacterial, broth dilution assay, Escherichia; format: cell-based; conditions: Escherichis; clinical isolates; 24 hr at 35°; read-out: Average MIC
Method: (§1) In this example compounds 7 and 30 were tested to determine their in vitro antibacterial activity. Clinical isolates of pathogens were used for this example. In vitro sensitivity of these organisms were quantitatively determined by broth dilution assay. Serial dilutions were prepared in chemically defined medium in a range from 100 to 0.01 μg/ml. The minimal Inhibitory Concentration (MIC) was recorded as the highest dilution of compound which prevented visible growth of the pathogen following 24 hr incubation at 35°.

[21] = test system: Salmonella; assay: In vitro antibacterial, broth dilution assay, Salmonella; format: cell-based; conditions: clinical isolates, 24 hr at 35°
Method: as §1

[22] = test system: Serratia; assay: In vitro antibacterial, broth dilution assay, Serratia; format: cell-based; conditions: clinical isolates, 24 hr at 35°
Method: as §1

[23] = test system: Klebsiella; assay: In vitro antibacterial, broth dilution assay, Klebsiella; format: cell-based; conditions: clinical isolates, 24 hr at 35°
Method: as §1

[24] = test system: Enterobacter; assay: In vitro antibacterial, broth dilution assay, Enterobacter; format: cell-based; conditions: clinical isolates, 24 hr at 35°
Method: as §1

[25] = test system: Citrobacter; assay: In vitro antibacterial, broth dilution assay, Citrobacter; format: cell-based; conditions: clinical isolates, 24 hr at 35°
Method: as §1

[26] = test system: Providence; assay: In vitro antibacterial, broth dilution assay, Providence; format: cell-based; conditions: clinical isolates, 24 hr at 35°
Method: as §1

[27] = test system: Pseudomonas; assay: In vitro antibacterial, broth dilution assay, Pseudomonas; format: cell-based; conditions: clinical isolates, 24 hr at 35°
Method: as §1

[28] = test system: Proteus; assay: In vitro antibacterial, broth dilution assay, Proteus; format: cell-based; conditions: Proteus; clinical isolates; 24 hr at 35°; read-out: Average MIC
Method: as §1

[29] = test system: Shigella; assay: In vitro antibacterial, broth dilution assay, Shigella; format: cell-based; conditions: clinical isolates, 24 hr at 35°
Method: as §1

[30] = test system: Escherichia Coli; assay: In vivo antibacterial activity, survival of mice after intraperitoneal challenge with Escherichia coli 138; design: species or system white mice (ICR, COX 17 to 20 g); conditions: 7 days
Method: In this example compounds 7 and 23 were tested along with, as a comparison, the known antibiotic Gentamycin, to determine their in vivo antibacterial activity. Experimental infections were produced in groups of 20 white mice (ICR, COX 17 to 20 g).
*Ec 138: Tetracycline and Streptomycin
**The LD50 is the challenge that killed 50% of the infected mice; th
LD50 values for the pathogen were calculated by the method of Probit

NC(=O)c1nc[nH]n1 [1,2,4-triazole-3-carboxamide]
antiviral activity [1]: significant antiviral activity

NC(=S)c1nc[nH]n1 [1,2,4-triazole-3thiocarboxamide]
antiviral activity [1]: significant antiviral activity

NC(=O)c1ncn([C@@H]2O[C@H](CO)[C@@H](O)[C@H]2O)n1 [1-β-D-ribofuranosyl-1,2,4-triazole-3-carboxamide]
activity against respiratory disease viruses [2]: active against these respiratory disease viruses

Nc1ccn([C@@H]2O[C@H](CO)[C@@H](O)[C@@H]2O)c(=O)n1 [Ara C, 1-β-D-arabinofuranosylcytosine, reference compound]
21 day survivors [3]: 0/6
Average Mean Survival [3]: 17.33 days
T/C [3]: 2.11
ΔWt. [3]: -0.2 g
activity against respiratory disease viruses [2]: only active against a limited spectrum of viruses which does not include those causing respiratory diseases

N#CCc1c(C(N)=O)ncn1[C@@H]1O[C@H](CO)[C@@H](O)[C@H]1O [Compound 3, 5-Cyanomethyl-1-β-D-ribofuranosylimidazole-4-carboxamide]
Virus rating (VR) [4]: 0.6
Virus rating (VR) [5]: 1.3

Nc1cc2c(ncn2[C@@H]2O[C@H](CO)[C@@H](O)[C@H]2O)c(=O)[nH]1 [Compound 4, 6-Amino-1-β-D-ribofuranosylimidazo[4,5-c]pyridin-4(5H)-one]
Virus rating (VR) [6]: 0.8
Virus rating (VR) [4]: 0.9
Virus rating (VR) [7]: 0.6
Virus rating (VR) [8]: 0.5
Virus rating (VR) [9]: 0.3
Virus rating (VR) [10]: 1.0
Virus rating (VR) ([11]; PIV/3, KB or RK-13 cells, VR >0.5 significant, <0.5 slight antiviral activity): 0.6
Virus rating (VR) ([12]; PIV/1, KB or RK-13 cells, VR >0.5 significant, <0.5 slight antiviral activity): 0.6
Virus rating (VR) [13]: 0.1
Virus rating (VR) [14]: 1.2
Virus rating (VR) [15]: 1.2
Virus rating (VR) [16]: 1.0
Virus rating (VR) [17]: 0.7
Virus rating (VR) [18]: 0.1
Virus rating (VR) [19]: 1.1

Nc1cc2ncn([C@@H]3O[C@H](CO)[C@@H](O)[C@H]3O)c2c(=O)[nH]1 [Compound 7, 6-amino-3-β-D-ribofuranosylimidazo[4,5-c]pyridin-4(5H)one]
MIC [20]: 0.5 mg/L (≈ 1.77 µM)
MIC [21]: 5 mg/L (≈ 17.7 µM)
MIC [22]: 5 mg/L (≈ 17.7 µM)
MIC [23]: 8 mg/L (≈ 28.3 µM)
MIC [24]: 10 mg/L (≈ 35.4 µM)
MIC [25]: 5 mg/L (≈ 17.7 µM)
MIC [26]: 15 mg/L (≈ 53.1 µM)
MIC [27]: 100 mg/L (≈ 354 µM)
MIC [28]: 10 mg/L (≈ 35.4 µM)
MIC [29]: 100 mg/L (≈ 354 µM)
% survival ([30]; challenge 1 LD50, 50 mg/kg × 2, oral): 100%
% survival ([30]; challenge 10 LD50's, 50 mg/kg × 2, oral): 100%
% survival ([30]; challenge 100 LD50's, 50 mg/kg × 2, oral): 100%
% survival ([30]; challenge 1000 LD50's, 50 mg/kg × 2, oral): 90%
% survival ([30]; challenge 10,000 LD50's, 50 mg/kg × 2, oral): 75%

Nc1cc2ncn(C3CCCCO3)c2c(=O)[nH]1 (stereo not drawn) [Compound 13, 6-Amino-3-(tetrahydropyran-2-yl)imidazo[4,5-c]pyridin-4(5H)-one]
Virus rating (VR) [4]: 0.8

C[C@H]1O[C@@H](n2cnc3c(=O)[nH]c(N)cc32)[C@H](O)[C@@H]1O [Compound 16, 6-Amino-1-(5-deoxy-β-D-ribofuranosyl)imidazo[4,5-c]pyridine-4(5H)-one]
Virus rating (VR) [4]: 0.9

N#CCc1c(C(N)=O)ncn1[C@@H]1O[C@H](COP(=O)(O)O)[C@@H](O)[C@H]1O [Compound 20, 5-Cyanomethyl-1-β-D-ribofuranosylimidazole-4-carboxamide 5'-phosphate]
Virus rating (VR) [4]: 0.8
Virus rating (VR) [5]: 0.5
Virus rating (VR) [7]: 0.3

Nc1cc2c(ncn2[C@@H]2O[C@H](COP(=O)(O)O)[C@@H](O)[C@H]2O)c(=O)[nH]1 [Compound 22, 6-Amino-1-β-D-ribofuranosylimidazo[4,5-c]pyridin-4(5H)-one 5'-phosphate]
Virus rating (VR) [4]: 0.9
Virus rating (VR) [5]: 1.0
Virus rating (VR) [7]: 0.7
Virus rating (VR) [11]: 0.8
Virus rating (VR) [12]: 0.3
Virus rating (VR) [16]: 0.9

Nc1cc2ncn([C@@H]3O[C@H](COP(=O)(O)O)[C@@H](O)[C@H]3O)c2c(=O)[nH]1 [Compound 23, 6-Amino-3-β-D-ribofuranosylimidazo[4,5-c]pyridin-4(5H)-one-5'-phosphate]
% survival ([30]; challenge 1000 LD50's, 100 mg/kg × 1, oral): 100%

N#CCc1[nH]cnc1C(N)=O [Compound 29, 4(5)-Cyanomethylimidazole-5(4)-carboxamide]
Virus rating (VR) [6]: 0.8
Virus rating (VR) [4]: 0.9
Virus rating (VR) [11]: 0.5
Virus rating (VR) [16]: 0.6

O=c1[nH]c(=O)n([C@H]2C[C@H](O)[C@@H](CO)O2)cc1I [IDU, 5-iodo-2' -deoxyuridine]
activity against respiratory disease viruses [2]: only active against a limited spectrum of viruses which does not include those causing respiratory diseases

Nc1ncnc2c1ncn2[C@@H]1O[C@H](CO)[C@@H](O)[C@@H]1O [ara-A, 9-β-D-arabino furanosyladenine]
activity against respiratory disease viruses [2]: only active against a limited spectrum of viruses which does not include those causing respiratory diseases

Gentamycin [reference compound]
% survival ([30]; challenge 1 LD50, 1 mg/kg × 2, SC): 100%
% survival ([30]; challenge 10 LD50's, 1 mg/kg × 2, SC): 100%
% survival ([30]; challenge 100 LD50's, 1 mg/kg × 2, SC): 90%
% survival ([30]; challenge 1000 LD50's, 1 mg/kg × 2, SC): 80%
% survival ([30]; challenge 10,000 LD50's, 1 mg/kg × 2, SC): 60%
